From PMC5827777, “Synthesis and biological evaluation of RGD and isoDGR peptidomimetic-α-amanitin conjugates for tumor-targeting” (Beilstein Journal of Organic Chemistry, 2018)
Read-outs that look alike come from different tables or passages of the source.

How the values were obtained:
[1] = target: T1, Recombinant human integrin αVβ3 (Homo sapiens, UniProt P05106+P06756); experiment: Inhibition of biotinylated vitronectin binding to purified αVβ3 receptor (solid phase receptor binding assay); details: conjugates, Table 2; mean ± SD of triplicate determinations
T1 construct: purchased R&D Systems, Minneapolis, MN, USA
Method: Conjugates 7–11 were evaluated for their ability to inhibit biotinylated vitronectin binding to the purified αVβ3 receptor. Screening assays were performed by incubating the immobilized integrin receptor with solutions of the cyclo[DKP-RGD]-α-amanitin and cyclo[DKP-isoDGR]-α-amanitin conjugates 7–11 at different concentrations (10^−12 to 10^−5 M) in the presence of biotinylated vitronectin (1 µg mL^−1) and measuring bound vitronectin. […]
to assist the dissolution). The solution obtained was filtered (polypropylene, 0.45 μm, 13 mm ø, PK/100) and injected in the HPLC, affording purified products. Purity analyses were carried on a Dionex Ultimate 3000 instrument equipped with a Dionex RS Variable Wavelenght detector (column: Atlantis® Prep T3 OBDTM 5 μm 19 × 100 mm). The analyte (1 mg) was dissolved in 1 mL of H2O and was injected using the same gradient used in the purification step. The analysis of the integrals and the relative percentage of purity were performed with the software Chromeleon 6.80 SR11 Build 3161. Also, preparative HPLC LaPrep∑ equipped with autosampler AS3950 and a Phenomenex Luna C-18(2) column, 10 µm, 250 × 21.2 mm, with precolumn at 30 mL/min flow rate and analytical HPLC performed on Hitachi Chromaster (column oven Chromaster 5310, pump Chromaster 5110, autosampler Chromaster 5210, DAD Chromaster 5430) equipped with a Phenomenex Luna C-18(2) column, 10 µm, 250 × 4.6 mm, with precolumn at 1.4 mL/min flow rate were used. Freeze-drying: The product was dissolved in water and frozen with dry ice. The freeze-drying was carried out at least for 48 h at −50 °C using the instrument 5Pascal Lio5P DGT.
Solid phase receptor binding assays
Recombinant human integrin αVβ3 (R&D Systems, Minneapolis, MN, USA) was diluted to 0.5 µg/mL in coating buffer containing 20 mM Tris-HCl (pH 7.4), 150 mM NaCl, 1 mM MnCl2, 2 mM CaCl2, and 1 mM MgCl2. […] Absorbance at 415 nm was read in a SynergyTM HT Multi-Detection Microplate Reader (BioTek Instruments, Inc.). […]

[2] = test system: U87 cells (human glioblastoma, αVβ3+); experiment: cells; format: cell-based; details: for IC50: 96 hours treatment, triplicate, read-out: IC50 U87 (αVβ3+), inhibition of cell viability
Method: (§1) The cell lines were treated with different concentrations of the free drug α-amanitin and conjugates 7–11 for 96 hours. […]
(§2) described recently.[S1] The SNP profiles matched known profiles or were unique. The purity of the cell lines was validated using the Multiplex cell Contamination Test by Multiplexion (Heidelberg, Germany) as described recently.[S2] No mycoplasma, SMRV or interspecies contamination was detected. U87-MG, MDA-MB 468 and A549 cells were cultivated continuously for not more than 3 months in MEM Eagle´s, DMEM or Ham´s F12 medium, respectively, supplemented with 10% heat inactivated fetus calf serum, L-glutamine and antibiotics. Cell lines were maintained at 37 °C and 5% CO2 in a high humidity atmosphere.
(§3) Cell therapy and viability assay
(§4) Cell viability assays were performed in U87-MG, A549 and MDA-MB 468 cell lines according to the following procedure: 2 × 10^3 cells/well were plated in 96-well black clear bottom plates (Perkin Elmer) and incubated overnight. 1:5 serial dilutions of compounds 7–11 were prepared in cell culture media. The compounds were added to the cell culture and incubated for additional 96 h. Starting concentration of compounds 7–11 in the wells was 1 × 10−5 M and cell viability was determined with the CellTiterGlo 2.0 assay (Promega) in accordance to manufacturer’s instructions. The cell viability was calculated in relation to the non-treated controls for each cell line. All samples were measured in triplicate. Data analysis was carried out using software GraphPad Prism (GraphPad Software Inc., La Jolla, CA, USA).
Competition experiment of compounds 10 and 11
The competition experiment s were performed in U87-MG and MDA-MB 468 cell lines according to the following procedure: 2 × 10^3 cells/well were plated in 96-well black clear bottom plates (Perkin Elmer) and incubated overnight. A solution containing 1 × 10−4 M of the conjugates 10 or 11 and 5 × 10−3 M of cilengitide (50-fold excess of ligand in comparison to the conjugate) was prepared in the growth medium and 1:5 serial dilutions were prepared in cell culture media. The compounds were added to cell culture and incubated for 96 h. The starting concentration of the compounds in the wells was 0.01 mM whereas that of cilengitide was 0.5 mM. The cell viability was determined with the CellTiterGlo 2.0 assay (Promega) in accordance to manufacturer’s instructions and the viability was calculated in relation to the non-treated controls for each cell line. All samples were measured in triplicate. Data analysis was carried out using software GraphPad Prism (GraphPad Software Inc., La Jolla, CA, USA).
(§5) [S1] F. Castro, W. G. Dirks, S. Fähnrich, A. Hotz-Wagenblatt, M. Pawlita, M. Schmitt, Int. J. Cancer […]
(§6) [S2] M. Schmitt, M. Pawlita, Nucleic Acids Res. 2009, 37, e119.

[3] = test system: MDA-MB-468 cells (breast adenocarcinoma, αVβ3−); experiment: cells; format: cell-based; details: 96 hours treatment, triplicate, read-out: IC50 MDA-MB-468 (αVβ3−), inhibition of cell viability
Method: as §1, §2, §3
as §4, with “USA). […]” for “USA).”
as §5, §6

[4] = test system: A549 cells (human lung carcinoma, αVβ3−); experiment: cells; format: cell-based
Method: as §1, §2, §3
as §4, with “USA). […]” for “USA).”

[5] = test system: αVβ3 positive and αVβ3 negative cell line; parameters: method as in PMID 28449309; details: αVβ3 positive vs αVβ3 negative cell line; cited from earlier work
αVβ5 receptor [6] = experiment: Inhibition of biotinylated vitronectin binding to αVβ5 receptor; details: ratio of IC50 values of Table 1
αVβ5 receptor [7] = target: αVβ5 receptor; parameters: method as in PMID 22517378, PMID 23424096; details: free ligands, Table 1; mean ± SD of triplicate determinations; read-out: IC50 αVβ5, inhibition of biotinylated vitronectin binding; cited from earlier work
αVβ3 = test system: αVβ3; parameters: method as in PMID 28074920; details: read-out: IC50 αVβ3 binding; cited from earlier work
αVβ5 = test system: αVβ5; parameters: method as in PMID 28074920; details: read-out: IC50 αVβ5 binding; cited from earlier work
α5β1 = test system: α5β1; parameters: method as in PMID 28074920; details: read-out: IC50 α5β1 binding; cited from earlier work

T1 sequence (P06756 31-992 limits assumed): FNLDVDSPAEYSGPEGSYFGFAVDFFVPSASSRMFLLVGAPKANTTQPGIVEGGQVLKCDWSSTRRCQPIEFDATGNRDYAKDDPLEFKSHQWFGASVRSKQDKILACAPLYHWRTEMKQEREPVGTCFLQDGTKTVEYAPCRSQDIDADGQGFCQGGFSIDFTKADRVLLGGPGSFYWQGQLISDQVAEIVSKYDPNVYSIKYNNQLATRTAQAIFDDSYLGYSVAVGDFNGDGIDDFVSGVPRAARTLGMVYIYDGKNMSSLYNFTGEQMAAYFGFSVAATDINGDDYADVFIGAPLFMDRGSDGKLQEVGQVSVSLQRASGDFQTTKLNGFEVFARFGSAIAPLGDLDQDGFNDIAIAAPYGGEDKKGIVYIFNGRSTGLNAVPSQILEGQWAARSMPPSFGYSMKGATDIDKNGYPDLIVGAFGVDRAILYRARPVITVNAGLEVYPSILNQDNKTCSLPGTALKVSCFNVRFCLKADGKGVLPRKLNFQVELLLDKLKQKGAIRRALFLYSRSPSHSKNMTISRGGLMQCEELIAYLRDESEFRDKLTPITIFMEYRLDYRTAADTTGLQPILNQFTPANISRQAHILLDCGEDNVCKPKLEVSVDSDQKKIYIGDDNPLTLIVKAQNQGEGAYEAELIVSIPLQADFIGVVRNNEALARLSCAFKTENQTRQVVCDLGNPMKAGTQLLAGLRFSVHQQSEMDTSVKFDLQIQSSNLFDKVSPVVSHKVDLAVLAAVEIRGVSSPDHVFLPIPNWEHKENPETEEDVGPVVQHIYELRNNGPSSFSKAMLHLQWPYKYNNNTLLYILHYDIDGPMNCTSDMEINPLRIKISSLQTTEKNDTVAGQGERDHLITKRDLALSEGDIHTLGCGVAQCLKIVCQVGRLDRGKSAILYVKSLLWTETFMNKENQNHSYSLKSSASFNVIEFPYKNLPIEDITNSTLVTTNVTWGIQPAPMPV
T1 sequence (P05106 27-718 limits assumed): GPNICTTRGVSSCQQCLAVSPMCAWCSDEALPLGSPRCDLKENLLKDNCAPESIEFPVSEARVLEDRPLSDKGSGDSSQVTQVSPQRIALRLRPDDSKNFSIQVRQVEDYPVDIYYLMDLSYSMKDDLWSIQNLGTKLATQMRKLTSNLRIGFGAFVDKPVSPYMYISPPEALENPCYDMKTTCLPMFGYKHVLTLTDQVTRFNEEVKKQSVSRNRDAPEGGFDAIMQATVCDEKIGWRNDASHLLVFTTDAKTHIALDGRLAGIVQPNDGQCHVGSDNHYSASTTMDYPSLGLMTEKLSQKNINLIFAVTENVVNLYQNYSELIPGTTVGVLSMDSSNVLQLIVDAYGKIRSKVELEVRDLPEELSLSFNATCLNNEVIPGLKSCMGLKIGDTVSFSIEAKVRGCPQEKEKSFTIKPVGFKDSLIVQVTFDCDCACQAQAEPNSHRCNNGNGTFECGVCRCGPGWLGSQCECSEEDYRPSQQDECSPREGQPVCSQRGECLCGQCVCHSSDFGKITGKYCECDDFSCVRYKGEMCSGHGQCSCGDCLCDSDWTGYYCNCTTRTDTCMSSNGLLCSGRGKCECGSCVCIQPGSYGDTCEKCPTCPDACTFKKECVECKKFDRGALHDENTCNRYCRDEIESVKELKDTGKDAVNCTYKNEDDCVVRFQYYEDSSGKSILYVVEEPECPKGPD

CC[C@H](C)[C@@H]1NC(=O)CNC(=O)[C@@H]2Cc3c([nH]c4cc(OCCCCCCNC(=O)CCCC(=O)NCc5ccc(CN6C(=O)[C@H]7CC(=O)N[C@@H](CCCNC(=N)N)C(=O)NCC(=O)N[C@@H](CC(=O)O)C(=O)NC[C@H]6C(=O)N7)cc5)ccc34)[S+]([O-])C[C@H](NC(=O)CNC1=O)C(=O)N[C@@H](CC(N)=O)C(=O)N1C[C@H](O)C[C@H]1C(=O)N[C@@H]([C@@H](C)[C@@H](O)CO)C(=O)N2 (stereo partly drawn) [Compound 7, cyclo[DKP-RGD]-uncleavable-α-amanitin]
IC50 [1]: 11.6 ± 2.4 nM
IC50 [2]: 2550 ± 37.6 nM
IC50 [3]: 1110 ± 228 nM

CC[C@H](C)[C@@H]1NC(=O)CNC(=O)[C@@H]2Cc3c([nH]c4cc(OCCCCCCNC(=O)CCCC(=O)NCc5ccc(CN6C(=O)[C@H]7CC(=O)N[C@H](C(=O)O)CC(=O)NCC(=O)N[C@@H](CCCNC(=N)N)C(=O)NC[C@H]6C(=O)N7)cc5)ccc34)[S+]([O-])C[C@H](NC(=O)CNC1=O)C(=O)N[C@@H](CC(N)=O)C(=O)N1C[C@H](O)C[C@H]1C(=O)N[C@@H]([C@@H](C)[C@@H](O)CO)C(=O)N2 (stereo partly drawn) [Compound 8, cyclo[DKP-isoDGR]-uncleavable-α-amanitin]
IC50 [1]: 6.8 ± 4.3 nM
IC50 [2]: 3355 ± 19.1 nM
IC50 [3]: 2200 ± 96.2 nM

CC[C@H](C)[C@@H]1NC(=O)CNC(=O)[C@@H]2Cc3c([nH]c4cc(OCc5ccc(NC(=O)[C@H](C)NC(=O)[C@@H](NC(=O)CCc6cn(CCOCCOCCOCCOCC(=O)NCc7ccc(CN8C(=O)[C@H]9CC(=O)N[C@H](C(=O)O)CC(=O)NCC(=O)N[C@@H](CCCNC(=N)N)C(=O)NC[C@H]8C(=O)N9)cc7)nn6)C(C)C)cc5)ccc34)[S+]([O-])C[C@H](NC(=O)CNC1=O)C(=O)N[C@@H](CC(N)=O)C(=O)N1C[C@H](O)C[C@H]1C(=O)N[C@@H]([C@@H](C)[C@@H](O)CO)C(=O)N2 (stereo partly drawn) [Compound 11, cyclo[DKP-isoDGR]-PEG-4-Val-Ala-α-amanitin]
more potent than α-amanitin ([2]; in U87 and MDA-MB-468 cell lines, Table 3 entry 1 vs entry 6): 2.1–2.8 times
less potent than the free drug (α-amanitin) ([4]; A549 cell line): 1.4 times

CC(=O)O[C@H]1C(=O)[C@@]2(C)[C@H]([C@H](OC(=O)c3ccccc3)[C@]3(O)C[C@H](OC(=O)[C@H](OC(=O)N(C)CCN(C)C(=O)OCc4ccc(NC(=O)[C@H](C)NC(=O)[C@@H](NC(=O)CCCC(=O)NCc5ccc(CN6C(=O)[C@H]7CC(=O)N[C@@H](CCCNC(=N)N)C(=O)NCC(=O)N[C@@H](CC(=O)O)C(=O)NC[C@H]6C(=O)N7)cc5)C(C)C)cc4)[C@@H](NC(=O)c4ccccc4)c4ccccc4)C(C)=C1C3(C)C)[C@]1(OC(C)=O)CO[C@@H]1C[C@@H]2O [Conjugate 5, cyclo[DKP-RGD]-Val-Ala-PTX]
targeting index (TI) [5]: 2.4

CC(=O)O[C@H]1C(=O)[C@@]2(C)[C@H]([C@H](OC(=O)c3ccccc3)[C@]3(O)C[C@H](OC(=O)[C@H](OC(=O)N(C)CCN(C)C(=O)OCc4ccc(NC(=O)[C@H](C)NC(=O)[C@@H](NC(=O)CCCC(=O)NCc5ccc(CN6C(=O)[C@H]7CC(=O)N[C@H](C(=O)O)CC(=O)NCC(=O)N[C@@H](CCCNC(=N)N)C(=O)NC[C@H]6C(=O)N7)cc5)C(C)C)cc4)[C@@H](NC(=O)c4ccccc4)c4ccccc4)C(C)=C1C3(C)C)[C@]1(OC(C)=O)CO[C@@H]1C[C@@H]2O [Conjugate 6, cyclo[DKP-isoDGR]-Val-Ala-PTX]
targeting index (TI) [5]: 9.9

N=C(N)NCCC[C@@H]1NC(=O)C[C@H]2NC(=O)[C@H](CNC(=O)[C@H](CC(=O)O)NC(=O)CNC1=O)N(Cc1ccccc1)C2=O [Ligand 1, cyclo[DKP-RGD]]
selectivity for αVβ3 in comparison with integrin αVβ5 (αVβ5 receptor [6]): 33–34 times
IC50 (αVβ5 receptor [7]): 149 ± 25 nM

CC[C@H](C)[C@@H]1NC(=O)CNC(=O)[C@@H]2Cc3c([nH]c4cc(O)ccc34)[S@+]([O-])C[C@H](NC(=O)CNC1=O)C(=O)N[C@@H](CC(N)=O)C(=O)N1C[C@H](O)C[C@H]1C(=O)N[C@@H]([C@@H](C)[C@@H](O)CO)C(=O)N2 [α-amanitin]
IC50 ([2]; Homo sapiens, U-87 MG): 347 ± 132 nM
IC50 ([3]; Homo sapiens, MDA-MB-468): 185 ± 49.6 nM
IC50 ([4]; Homo sapiens, A549, 96 hours treatment, triplicate, read-out: IC50 A549 (αVβ3−), inhibition of cell viability): 518 ± 305 nM

cilengitide
IC50 (αVβ3): 0.6 nM
IC50 (αVβ5): 8.4 nM
IC50 (α5β1): 14.9 nM
